The source of these data is patent publication US8987167B2, “Low volatile amine salts of anionic pesticides” (BASF SE, priority 2009, dated 2015).

Where two headings read alike, the source gives them in different places. Bounds are passed on as bounds.

The nature of data set [1]: Volatility determined by TGA (thermal gravimetric analysis). It is filed as physicochemical. Here is the method: The volatility of the aqueous solutions of dicamba (480 g/l) or 2,4-D (250 g/l) as prepared in Example 1 was determined by analyzing the wt % loss per minute as calculated by the slope between 400 min and 1200 min of a TGA (thermal gravimetric analysis) analysis. The measurement conditions on a TA Instrument TGA Q50 were as follows: Pan type: Platinum; sample size 25 μl leveling uniformly on pan surface, balance purge flow 40 ml/min; sample purge flow 60 ml/min; temperature procedure: Start at 20° C., ramp 10° C./min to 100° C., then isothermal for 1200 min.
The volatility of the aqueous solutions of glyphosate salts as prepared in Example 6 was determined by analyzing the wt % loss per minute as described in Example 3.

The conditions of data set [2]: pH 7.
The conditions of data set [3]: 30% humidity; for Volatility after 2 weeks (wt % loss) / Volatility after 4 weeks (wt % loss): Petri dish, 480 g/l solution diluted 1:50, 50° C., forced air flow, loss of dicamba acid by HPLC. The method, then: A dicamba sample of the aqueous solutions of dicamba (480 g/l) as prepared in Example 1 (Table 1, entry 2) was diluted with distilled water in a ratio of 1:50. To help spreading of the samples uniformly on the surface of the plate, Silwet L-77 was added (0.1 wt %). A total of 300 μl of this diluted sample was applied per Petri dish (diameter 5 cm). The dishes were kept at an environment chamber (Barnstead Environ-Cab Lab-line 680A) with forced air flow (air vent out) up to one month at 50° C. and 30% humidity. Afterwards the plates were extracted with acetic acid/methanol and the pesticide quantified by HPLC (Columbus C18 column) to determine the volatile loss of dicamba acid.

Where [4] appears, read: soybean injury (epinasty and stunting) 14 days after 24 h vapour exposure to Petri dishes treated with 4480 g active ingredient per ha, normalized to 30% for the 2-(-aminoethoxy)ethanol salt.
Setting [5] is: Dicamba salts, 480 g/l, TGA, normalized, dicamba acid = 100.0.
[6] abbreviates: Dicamba salts, aqueous solution 480 g/l, TGA isothermal at 100° C., slope between 400 min and 1200 min.
Where [7] appears, read: 2,4-D salts, 250 g/l, TGA, normed, dimethylamine salt = 100.0.
Setting [8] is: 2,4-D salts, aqueous solution 250 g/l, TGA isothermal at 100° C., slope between 400 min and 1200 min.
[9] abbreviates: Glyphosate salts, aqueous solution 480 g/l, TGA.

Description for soybean plants: Soybeans were grown in a 3 inch (7.6 cm) pots for approximately 10 days until the first trifoliate is unfolded (not fully expanded). […] Immediately after treatment, eight Petri dishes and two soybean plants were placed in a tray (25×51 cm) and covered with a plastic dome (25×51×20 cm). The covered trays were placed in a greenhouse with temperature maintained at 25-35° C. and 50-80% humidity. After 24 h of exposure, the plastic dome was removed.

On to `CN(C)CCCNCCCN(C)C.COc1c(Cl)ccc(Cl)c1C(=O)O` [Dicamba salt: Jeffcat ® Z-130], for which the “Injury (%)” value with soybean plants (setting [4]) was found to be 5%. Besides, the “Volatility (normalized)” value in data set [1] (setting [5]) is on record as 2.9. Also, the “Volatility (wt % loss per min)” value in data set [1] (setting [6]) amounted to 0.0017 wt % loss per min.

Consider `NCCNCCO.O=C(O)COc1ccc(Cl)cc1Cl` [2,4-D salt: Aminoethylethanolamine], for which the “Volatility (normed)” value in data set [1] (setting [7]) is 35.7. Further, the “Volatility (wt % loss per min)” value in data set [1] (setting [8]) was found to be 0.002 wt % loss per min.

In the case of `COc1c(Cl)ccc(Cl)c1C(=O)O.NCCCN1CCOCC1` [aminopropylmorpholine (APM) salt of dicamba, reference compound], in data set [2], the solubility in water is at most 300 mg/mL. Moreover, in data set [1] (dicamba salt, 480 g/l (solution could not be prepared), compared with 0.0021 wt % loss per min at 300 g/l), the “Volatility expected for a concentration of 480 g/l” value is “expected to be higher”. Also, the “Volatility (wt % loss per min)” value in data set [1] (dicamba salt, aqueous solution 300 g/l, TGA) is listed as 0.0021 wt % loss per min.

In the case of `COc1c(Cl)ccc(Cl)c1C(=O)O.NCCNCCN` [Dicamba salt: Diethylenetriamine], the “Injury (%)” value in the data set on soybean plants (setting [4]) was 14%. Besides, the “Volatility (normalized)” value in data set [1] (setting [5]) was determined as 0.7. In addition, the “Volatility (wt % loss per min)” value in data set [1] (setting [6]) is reported as 0.0004 wt % loss per min.

As to `CNC.COc1c(Cl)ccc(Cl)c1C(=O)O` [Dicamba salt: Dimethylamine, dicamba dimethylamine salt, reference compound], in data set [3], the “Volatility after 2 weeks (wt % loss)” value is given as 98.7 wt % loss and the “Volatility after 4 weeks (wt % loss)” value came out at 100 wt % loss. Further, the “Injury (%)” value in the data set on soybean plants (in vivo) was found to be 48%. For the same compound, in data set [1], the “Volatility (normalized)” value is reported as 17.8 and the “Volatility (wt % loss per min)” value was 0.011 wt % loss per min.

Take `CN(CCCN)CCCN.COc1c(Cl)ccc(Cl)c1C(=O)O`: the “Injury (%)” value in the data set with soybean plants (in vivo) worked out at 7%. For the same compound, in data set [1], the “Volatility (normalized)” value came out at 0.5 and the “Volatility (wt % loss per min)” value is reported as 0.0003 wt % loss per min.

With `NCCNCCN.O=C(O)COc1ccc(Cl)cc1Cl` [2,4-D salt: Diethylenetriamine], the “Volatility (normed)” value in data set [1] (setting [7]) was 13.7. For the same compound, the “Volatility (wt % loss per min)” value in data set [1] (setting [8]) was found to be 0.0008 wt % loss per min.

`CNC.O=C(O)COc1ccc(Cl)cc1Cl` [2,4-D salt: Dimethylamine, reference compound]: in data set [1], the “Volatility (normed)” value came to 100.0 and the “Volatility (wt % loss per min)” value came to 0.006 wt % loss per min.

As for `CC1(C)CC(N)CC(C)(CN)C1.COc1c(Cl)ccc(Cl)c1C(=O)O` [Dicamba salt: Isophorone diamine], in the data set on soybean plants (setting [4]), the “Injury (%)” value stood at 19%. Also, in data set [1], the “Volatility (normalized)” value is recorded as 0.4. The “Volatility (wt % loss per min)” value in data set [1] (setting [6]) is reported as 0.0002 wt % loss per min.

Consider `CN(C)CCCNCCCN(C)C.O=C(O)COc1ccc(Cl)cc1Cl` [2,4-D salt: Jeffcat ® Z-130], for which, in data set [1] (setting [7]), the “Volatility (normed)” value is reported as 14.8. In addition, the “Volatility (wt % loss per min)” value in data set [1] (setting [8]) is reported as 0.0008 wt % loss per min.

As for `CC1(C)CC(N)CC(C)(CN)C1.O=C(O)CNCP(=O)(O)O` (stereo not drawn) [Glyphosate salt: Isophorone diamine], in data set [1] (setting [9]), the “Volatility (wt % loss per min)” value was 0.002 wt % loss per min.

With `COc1c(Cl)ccc(Cl)c1C(=O)O.NCCNCCO` [Dicamba salt: Aminoethylethanolamine, aminoethylethanolamine salt of dicamba], in data set [3] (50° C., up to one month), the “volatility compared to commercial dicamba salt formulations (Petri dish)” value is on record as “reduced volatility compared to commercial dicamba salt formulations”. For the same compound, in data set [3], the “Volatility after 2 weeks (wt % loss)” value is reported as 6.2 wt % loss and the “Volatility after 4 weeks (wt % loss)” value was found to be 20.6 wt % loss. For the same compound, the “Injury (%)” value in the data set on soybean plants (setting [4]) came to 5%. Further, the “Volatility (normalized)” value in data set [1] (setting [5]) came to 3.1. The “Volatility (wt % loss per min)” value in data set [1] (setting [6]) amounted to 0.0018 wt % loss per min.

Turning to `COc1c(Cl)ccc(Cl)c1C(=O)O` [Dicamba acid, dicamba, reference compound], in the data set with soybean plants (setting [4]), the “Injury (%)” value was found to be 67%. Further, the “Volatility (normalized)” value in data set [1] (setting [5]) is 100.0. Besides, the “Volatility (wt % loss per min)” value in data set [1] (setting [6]) stood at 0.060 wt % loss per min.

Consider `COc1c(Cl)ccc(Cl)c1C(=O)O.NCCN1CCNCC1` [Dicamba salt: Aminoethylpiperazine], for which, in the data set on soybean plants (setting [4]), the “Injury (%)” value turned out to be 19%. In addition, the “Volatility (normalized)” value in data set [1] (setting [5]) was 0.4. The “Volatility (wt % loss per min)” value in data set [1] (setting [6]) amounted to 0.0002 wt % loss per min.

For the compound `NCCN1CCNCC1.O=C(O)CNCP(=O)(O)O` [Glyphosate salt: Aminoethylpiperazine], the “Volatility (wt % loss per min)” value in data set [1] (setting [9]) is 0.002 wt % loss per min.

On to `CN(CCCN)CCCN.O=C(O)CNCP(=O)(O)O`, for which, in data set [1], the “Volatility (wt % loss per min)” value is 0.002 wt % loss per min.

In the case of `COc1c(Cl)ccc(Cl)c1C(=O)O.NCCOCCO` [Dicamba salt: 2-(-Aminoethoxy)ethanol, dicamba 2-(-Aminoethoxy)ethanol salt, reference compound], in data set [3], the “Volatility after 2 weeks (wt % loss)” value was 29.3 wt % loss and the “Volatility after 4 weeks (wt % loss)” value was 57.0 wt % loss. Also, the “Injury (%)” value with soybean plants (setting [4]) stood at 30%. In data set [1] (setting [5]), the “Volatility (normalized)” value is on record as 5.4. Further, the “Volatility (wt % loss per min)” value in data set [1] (setting [6]) is 0.0032 wt % loss per min.

In the case of `CN(C)CCCN(C)CCCN(C)C.COc1c(Cl)ccc(Cl)c1C(=O)O` [Dicamba salt: Jeffcat ZR-40], the “Volatility (normalized)” value in data set [1] (setting [5]) stood at 5.0. Besides, in data set [1] (setting [6]), the “Volatility (wt % loss per min)” value is 0.0030 wt % loss per min.

Take `NCCNCCN.O=C(O)CNCP(=O)(O)O` [Glyphosate salt: Diethylenetriamine, glyphosate diethylenetriamine salt, reference compound]: in data set [1] (setting [9]), the “Volatility (wt % loss per min)” value is 0.002 wt % loss per min.
